Assay results reported in ChEMBL document CHEMBL4630906, “Data for DCP probe BAY-3153” (2021).
Active and inactive are the calls of the source. The rule behind the calls is not given here.

Experiments:
[1] = target: T1, Sigma intracellular receptor 2 (Homo sapiens, UniProt Q5BJF2); assay: GPCRScan assay: inhibition of Sigma 2; parameters: radioligand conc. used [nm] 5.0, parental cells HEKT
[2] = target: Alpha-2C adrenergic receptor (Homo sapiens) (UniProt P18825); settings: Compound concentration 10.0 uM
[3] = target: 5-hydroxytryptamine receptor 2C (Homo sapiens) (UniProt P28335); settings: Compound concentration 10.0 uM
[4] = target: Histamine H4 receptor (Homo sapiens) (UniProt Q9H3N8); settings: Compound concentration 10.0 uM
[5] = target: Mu-type opioid receptor (Homo sapiens) (UniProt P35372); settings: Compound concentration 10.0 uM
[6] = target: D(3) dopamine receptor (Homo sapiens) (UniProt P35462); settings: Compound concentration 10.0 uM
[7] = target: Alpha-2B adrenergic receptor (Homo sapiens, UniProt P18089); assay: GPCRScan assay: inhibition of Alpha2B; parameters: radioligand conc. used [nm] 1.5 – 2.0, parental cells HEKT
[8] = target: 5-hydroxytryptamine receptor 2B (Homo sapiens) (UniProt P41595); settings: Compound concentration 10.0 uM
[9] = target: 5-hydroxytryptamine receptor 1D (Homo sapiens) (UniProt P28221); settings: Compound concentration 10.0 uM
[10] = target: Alpha-1A adrenergic receptor (Homo sapiens) (UniProt P35348); settings: Compound concentration 10.0 uM
[11] = target: T2, Sodium-dependent serotonin transporter (Homo sapiens, UniProt P31645); assay: GPCRScan assay: inhibition of SERT; parameters: radioligand conc. used [nm] 1.5 – 2.0, parental cells stable HEK
[12] = target: Alpha-1D adrenergic receptor (Homo sapiens) (UniProt P25100); settings: Compound concentration 10.0 uM
D(4) dopamine receptor = D(4) dopamine receptor (Homo sapiens, UniProt P21917); assay: GPCRScan assay: inhibition of D4; parameters: radioligand conc. used [nm] 0.6 – 1.7, parental cells Stable HEK
[13] = target: Alpha-1B adrenergic receptor (Homo sapiens) (UniProt P35368); settings: Compound concentration 10.0 uM
[14] = target: T1, Sigma intracellular receptor 2; settings: Compound concentration 10.0 uM
Rattus norvegicus = species on record: Rattus norvegicus; settings: Compound concentration 10.0 uM
[15] = target: Alpha-2A adrenergic receptor (Homo sapiens) (UniProt P08913); settings: Compound concentration 10.0 uM
[16] = target: Beta-1 adrenergic receptor (Homo sapiens) (UniProt P08588); settings: Compound concentration 10.0 uM
[17] = target: T3, GABA-A receptor; anion channel (Rattus norvegicus) (UniProt O09028+P15431+P18506+P18508+P19969+P20236+P23574+P23576+P28471+P28473+P30191+P62813+P63079+P63138+Q91ZM7+Q9ES14); settings: Compound concentration 10.0 uM
[18] = target: 5-hydroxytryptamine receptor 3A (Homo sapiens) (UniProt P46098); settings: Compound concentration 10.0 uM
[19] = target: C-C chemokine receptor type 1 (Homo sapiens, UniProt P32246); assay: CCR1 cellular Ca2+-flux assay; assay type: functional
[20] = target: T2, Sodium-dependent serotonin transporter; settings: Compound concentration 10.0 uM
Target sequence in this assay (P31645 whole entry, looked up): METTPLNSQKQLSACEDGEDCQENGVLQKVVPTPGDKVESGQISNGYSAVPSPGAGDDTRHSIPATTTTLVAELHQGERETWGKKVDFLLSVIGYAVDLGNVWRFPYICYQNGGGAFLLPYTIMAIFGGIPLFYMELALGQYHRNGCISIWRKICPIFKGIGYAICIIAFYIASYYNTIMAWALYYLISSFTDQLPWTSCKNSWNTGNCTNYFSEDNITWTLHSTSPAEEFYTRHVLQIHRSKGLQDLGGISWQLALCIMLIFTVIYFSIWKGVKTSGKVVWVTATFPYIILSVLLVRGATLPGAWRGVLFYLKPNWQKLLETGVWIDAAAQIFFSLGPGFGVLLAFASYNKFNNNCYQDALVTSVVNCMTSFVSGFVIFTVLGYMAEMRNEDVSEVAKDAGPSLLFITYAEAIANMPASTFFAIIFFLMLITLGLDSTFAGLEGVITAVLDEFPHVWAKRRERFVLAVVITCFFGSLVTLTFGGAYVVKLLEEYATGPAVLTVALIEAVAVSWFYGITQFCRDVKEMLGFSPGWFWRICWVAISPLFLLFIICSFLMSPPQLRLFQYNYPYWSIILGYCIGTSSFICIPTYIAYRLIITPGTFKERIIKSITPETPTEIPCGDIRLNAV

[21] = target: T4, Kappa-type opioid receptor (Homo sapiens, UniProt P41145); settings: Compound concentration 10.0 uM
[22] = target: D(4) dopamine receptor (Homo sapiens) (UniProt P21917); settings: Compound concentration 10.0 uM
[23] = target: 5-hydroxytryptamine receptor 6 (Homo sapiens) (UniProt P50406); settings: Compound concentration 10.0 uM
[24] = target: T5, Sigma non-opioid intracellular receptor 1 (Homo sapiens, UniProt Q99720); settings: Compound concentration 10.0 uM
[25] = target: T5, Sigma non-opioid intracellular receptor 1; assay: GPCRScan assay: inhibition of Sigma 1; parameters: radioligand conc. used [nm] 4.0 – 5.0, parental cells HEKT
[26] = target: T3, GABA-A receptor; anion channel (Rattus norvegicus); settings: Compound concentration 10.0 uM; remark: listed apart in the source
[27] = target: Muscarinic acetylcholine receptor M2 (Homo sapiens) (UniProt P08172); settings: Compound concentration 10.0 uM
[28] = target: Muscarinic acetylcholine receptor M4 (Homo sapiens) (UniProt P08173); settings: Compound concentration 10.0 uM
[29] = target: Histamine H3 receptor (Homo sapiens) (UniProt Q9Y5N1); settings: Compound concentration 10.0 uM
[30] = target: Muscarinic acetylcholine receptor M5 (Homo sapiens) (UniProt P08912); settings: Compound concentration 10.0 uM
[31] = target: Beta-2 adrenergic receptor (Homo sapiens) (UniProt P07550); settings: Compound concentration 10.0 uM
[32] = target: Histamine H1 receptor (Homo sapiens) (UniProt P35367); settings: Compound concentration 10.0 uM
[33] = target: Sodium-dependent noradrenaline transporter (Homo sapiens) (UniProt P23975); settings: Compound concentration 10.0 uM
[34] = target: 5-hydroxytryptamine receptor 2A (Homo sapiens) (UniProt P28223); settings: Compound concentration 10.0 uM
[35] = target: Muscarinic acetylcholine receptor M3 (Homo sapiens) (UniProt P20309); settings: Compound concentration 10.0 uM
[36] = target: Beta-3 adrenergic receptor (Homo sapiens) (UniProt P13945); settings: Compound concentration 10.0 uM
[37] = target: 5-hydroxytryptamine receptor 5A (Homo sapiens) (UniProt P47898); settings: Compound concentration 10.0 uM
[38] = target: 5-hydroxytryptamine receptor 1B (Homo sapiens) (UniProt P28222); settings: Compound concentration 10.0 uM
[39] = target: D(1B) dopamine receptor (Homo sapiens) (UniProt P21918); settings: Compound concentration 10.0 uM
[40] = target: Histamine H2 receptor (Homo sapiens) (UniProt P25021); settings: Compound concentration 10.0 uM
[41] = target: Muscarinic acetylcholine receptor M1 (Homo sapiens) (UniProt P11229); settings: Compound concentration 10.0 uM
[42] = target: T4, Kappa-type opioid receptor; assay: GPCRScan assay: inhibition of KOR; parameters: radioligand conc. used [nm] 0.6 – 1.2, parental cells stable HEK
[43] = target: 5-hydroxytryptamine receptor 1A (Homo sapiens) (UniProt P08908); settings: Compound concentration 10.0 uM
[44] = target: Sodium-dependent dopamine transporter (Homo sapiens) (UniProt Q01959); settings: Compound concentration 10.0 uM
[45] = target: D(2) dopamine receptor (Homo sapiens) (UniProt P14416); settings: Compound concentration 10.0 uM
[46] = target: Delta-type opioid receptor (Homo sapiens) (UniProt P41143); settings: Compound concentration 10.0 uM
[47] = target: D(1A) dopamine receptor (Homo sapiens) (UniProt P21728); settings: Compound concentration 10.0 uM
[48] = GPCRScan assay: inhibition of GABA/PBR; parameters: species or system Rattus norvegicus; radioligand conc. used [nm] 0.3 – 2.0, parental cells brain tissue

T1 sequence (Q5BJF2 whole entry): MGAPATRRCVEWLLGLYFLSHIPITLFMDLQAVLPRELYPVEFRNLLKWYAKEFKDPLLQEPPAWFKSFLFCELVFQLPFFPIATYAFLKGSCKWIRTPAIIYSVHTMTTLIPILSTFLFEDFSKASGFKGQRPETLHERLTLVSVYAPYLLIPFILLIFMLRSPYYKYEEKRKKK
T5 sequence (Q99720 whole entry): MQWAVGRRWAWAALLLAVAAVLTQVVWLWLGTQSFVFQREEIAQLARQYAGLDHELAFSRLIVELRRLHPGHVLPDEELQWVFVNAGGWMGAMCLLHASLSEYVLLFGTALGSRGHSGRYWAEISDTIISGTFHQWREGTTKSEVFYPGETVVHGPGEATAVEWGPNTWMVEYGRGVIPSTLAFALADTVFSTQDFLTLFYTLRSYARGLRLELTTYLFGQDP
T4 sequence (P41145 whole entry): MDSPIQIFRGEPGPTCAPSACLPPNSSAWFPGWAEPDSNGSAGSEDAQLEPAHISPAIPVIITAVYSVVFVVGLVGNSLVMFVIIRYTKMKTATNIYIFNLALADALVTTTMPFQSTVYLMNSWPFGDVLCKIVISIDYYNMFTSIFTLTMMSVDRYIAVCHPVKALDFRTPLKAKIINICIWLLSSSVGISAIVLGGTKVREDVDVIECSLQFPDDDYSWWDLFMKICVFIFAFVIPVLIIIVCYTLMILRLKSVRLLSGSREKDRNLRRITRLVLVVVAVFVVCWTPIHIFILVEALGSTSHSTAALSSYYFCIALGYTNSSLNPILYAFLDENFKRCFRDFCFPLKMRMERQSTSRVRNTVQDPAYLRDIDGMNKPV
Histamine H2 receptor (Homo sapiens), sequence (P25021 whole entry): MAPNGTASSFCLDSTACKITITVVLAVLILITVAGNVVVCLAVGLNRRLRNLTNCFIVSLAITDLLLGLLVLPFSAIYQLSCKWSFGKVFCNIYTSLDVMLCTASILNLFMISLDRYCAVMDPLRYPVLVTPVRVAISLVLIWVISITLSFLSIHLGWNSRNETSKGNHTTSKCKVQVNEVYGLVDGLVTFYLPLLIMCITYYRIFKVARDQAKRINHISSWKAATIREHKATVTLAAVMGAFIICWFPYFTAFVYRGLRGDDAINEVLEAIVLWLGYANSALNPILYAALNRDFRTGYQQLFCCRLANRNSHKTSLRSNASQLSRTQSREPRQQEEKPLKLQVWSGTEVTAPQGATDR
Alpha-1D adrenergic receptor (Homo sapiens), sequence (P25100 whole entry): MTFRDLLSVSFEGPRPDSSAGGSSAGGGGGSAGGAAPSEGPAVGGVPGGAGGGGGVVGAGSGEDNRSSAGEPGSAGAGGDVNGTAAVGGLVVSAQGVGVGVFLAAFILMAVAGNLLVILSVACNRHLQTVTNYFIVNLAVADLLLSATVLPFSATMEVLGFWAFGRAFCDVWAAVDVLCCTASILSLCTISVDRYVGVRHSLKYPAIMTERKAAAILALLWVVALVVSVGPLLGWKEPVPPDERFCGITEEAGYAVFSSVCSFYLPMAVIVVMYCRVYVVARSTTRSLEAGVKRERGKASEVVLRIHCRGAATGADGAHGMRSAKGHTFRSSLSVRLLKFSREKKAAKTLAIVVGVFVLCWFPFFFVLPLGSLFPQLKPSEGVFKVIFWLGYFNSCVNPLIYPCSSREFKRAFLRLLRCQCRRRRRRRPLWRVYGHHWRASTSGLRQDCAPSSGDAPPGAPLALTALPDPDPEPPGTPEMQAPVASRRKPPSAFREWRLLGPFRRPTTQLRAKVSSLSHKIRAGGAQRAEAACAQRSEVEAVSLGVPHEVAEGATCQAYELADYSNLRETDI
Alpha-2C adrenergic receptor (Homo sapiens), sequence (P18825 whole entry): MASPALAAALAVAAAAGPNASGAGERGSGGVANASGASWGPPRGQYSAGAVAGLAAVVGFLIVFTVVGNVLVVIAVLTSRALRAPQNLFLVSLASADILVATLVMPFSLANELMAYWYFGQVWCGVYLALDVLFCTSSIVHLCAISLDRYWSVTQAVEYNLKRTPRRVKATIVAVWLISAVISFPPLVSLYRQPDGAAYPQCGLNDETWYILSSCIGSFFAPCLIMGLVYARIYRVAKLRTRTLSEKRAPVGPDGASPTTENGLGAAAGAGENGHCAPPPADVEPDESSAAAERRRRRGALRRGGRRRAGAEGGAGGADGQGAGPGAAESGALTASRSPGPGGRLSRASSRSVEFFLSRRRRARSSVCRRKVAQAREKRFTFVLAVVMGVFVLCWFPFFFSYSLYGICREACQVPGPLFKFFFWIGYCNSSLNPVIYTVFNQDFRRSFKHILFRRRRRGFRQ
5-hydroxytryptamine receptor 2A (Homo sapiens), sequence (P28223 whole entry): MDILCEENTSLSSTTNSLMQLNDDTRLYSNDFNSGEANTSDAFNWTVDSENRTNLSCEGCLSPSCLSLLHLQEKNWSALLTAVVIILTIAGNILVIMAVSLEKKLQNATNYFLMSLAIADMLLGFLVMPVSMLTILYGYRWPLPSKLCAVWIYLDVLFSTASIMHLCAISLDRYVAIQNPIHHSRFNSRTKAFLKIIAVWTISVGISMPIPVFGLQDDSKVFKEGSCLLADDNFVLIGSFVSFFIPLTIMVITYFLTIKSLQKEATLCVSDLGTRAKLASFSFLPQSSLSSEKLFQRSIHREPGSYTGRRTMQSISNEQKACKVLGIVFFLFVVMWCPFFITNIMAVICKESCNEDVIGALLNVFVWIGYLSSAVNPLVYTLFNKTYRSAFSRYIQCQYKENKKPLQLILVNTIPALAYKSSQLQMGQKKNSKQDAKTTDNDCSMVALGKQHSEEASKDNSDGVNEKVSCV
D(3) dopamine receptor (Homo sapiens), sequence (P35462 whole entry): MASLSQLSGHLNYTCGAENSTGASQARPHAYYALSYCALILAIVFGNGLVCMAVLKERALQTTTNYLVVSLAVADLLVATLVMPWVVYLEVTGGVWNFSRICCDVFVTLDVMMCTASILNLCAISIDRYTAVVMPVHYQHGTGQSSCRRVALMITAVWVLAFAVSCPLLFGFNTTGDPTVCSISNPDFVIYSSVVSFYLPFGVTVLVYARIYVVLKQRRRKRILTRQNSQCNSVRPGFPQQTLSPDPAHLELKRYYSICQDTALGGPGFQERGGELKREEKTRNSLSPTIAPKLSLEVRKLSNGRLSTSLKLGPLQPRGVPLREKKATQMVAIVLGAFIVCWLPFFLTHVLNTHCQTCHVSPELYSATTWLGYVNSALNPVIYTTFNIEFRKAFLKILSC
5-hydroxytryptamine receptor 2B (Homo sapiens), sequence (P41595 whole entry): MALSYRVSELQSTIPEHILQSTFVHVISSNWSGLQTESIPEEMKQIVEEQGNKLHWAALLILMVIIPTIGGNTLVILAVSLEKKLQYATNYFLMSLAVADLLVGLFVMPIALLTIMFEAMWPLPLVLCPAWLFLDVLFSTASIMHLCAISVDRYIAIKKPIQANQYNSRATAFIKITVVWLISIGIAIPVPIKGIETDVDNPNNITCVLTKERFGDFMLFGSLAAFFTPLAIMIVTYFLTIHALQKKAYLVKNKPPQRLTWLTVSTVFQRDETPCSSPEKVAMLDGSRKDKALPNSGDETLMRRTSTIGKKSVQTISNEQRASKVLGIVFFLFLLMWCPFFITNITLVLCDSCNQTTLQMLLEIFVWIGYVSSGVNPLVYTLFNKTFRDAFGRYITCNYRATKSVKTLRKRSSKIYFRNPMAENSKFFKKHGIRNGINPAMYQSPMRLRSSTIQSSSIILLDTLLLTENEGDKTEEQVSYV
5-hydroxytryptamine receptor 1D (Homo sapiens), sequence (P28221 whole entry): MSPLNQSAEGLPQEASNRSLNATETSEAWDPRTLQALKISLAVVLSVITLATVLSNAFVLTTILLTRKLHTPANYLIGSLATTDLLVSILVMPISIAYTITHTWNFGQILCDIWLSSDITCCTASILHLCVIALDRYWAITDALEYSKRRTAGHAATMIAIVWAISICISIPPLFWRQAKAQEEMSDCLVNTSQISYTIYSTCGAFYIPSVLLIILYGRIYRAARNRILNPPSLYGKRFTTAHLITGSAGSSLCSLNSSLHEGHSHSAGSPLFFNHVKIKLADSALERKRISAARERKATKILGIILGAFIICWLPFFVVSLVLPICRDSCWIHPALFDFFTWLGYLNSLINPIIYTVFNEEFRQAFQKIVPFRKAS
5-hydroxytryptamine receptor 1B (Homo sapiens), sequence (P28222 whole entry): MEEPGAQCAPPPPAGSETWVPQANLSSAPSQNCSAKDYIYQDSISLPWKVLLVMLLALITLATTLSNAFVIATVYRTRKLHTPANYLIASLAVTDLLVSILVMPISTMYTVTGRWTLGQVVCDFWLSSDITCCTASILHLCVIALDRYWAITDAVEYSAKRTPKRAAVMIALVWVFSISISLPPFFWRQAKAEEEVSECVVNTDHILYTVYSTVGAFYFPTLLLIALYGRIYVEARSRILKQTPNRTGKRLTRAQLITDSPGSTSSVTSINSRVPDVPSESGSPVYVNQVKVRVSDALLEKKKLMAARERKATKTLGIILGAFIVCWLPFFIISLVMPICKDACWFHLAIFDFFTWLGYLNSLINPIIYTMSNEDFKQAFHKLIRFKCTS

## O=C([C@H]1C[C@H](O)CN1c1ccc(Cl)cc1)N1CC2COCC(C1)N2Cc1ccc(Cl)cc1 [BAY-173]
[1]
  Ki: 2170 nM
[2]
  inhibition: 14.4%
[3]
  inhibition: -2.02%
[4]
  inhibition: -3.31%
[5]
  inhibition: 4.45%
[6]
  inhibition: 2.75%
[7]
  Ki: 10000 nM
[8]
  inhibition: 14.8%
[9]
  inhibition: -7.5%
[10]
  inhibition: 7.02%
[11]
  Ki: 1460 nM
[12]
  inhibition: -7.34%
D(4) dopamine receptor
  Ki: 10000 nM
[13]
  inhibition: 0.94%
[14]
  inhibition: 76.5%
Rattus norvegicus
  inhibition: -8.33%
[15]
  inhibition: 11.3%
[16]
  inhibition: 6.12%
[17]
  inhibition: 20%
[18]
  inhibition: -7.03%
[19]
  IC50: 1200 nM (not active)
[20]
  inhibition: 70.3%
[21]
  inhibition: 18.7%
[22]
  inhibition: 51.5%
[23]
  inhibition: 5.38%
[24]
  inhibition: 69.5%
[25]
  Ki: 8250 nM
[26]
  inhibition: 0.65%
[27]
  inhibition: 1.89%
[28]
  inhibition: -6.12%
[29]
  inhibition: 9.39%
[30]
  inhibition: -1.65%
[31]
  inhibition: -7.55%
[32]
  inhibition: 14.3%
[33]
  inhibition: -4.52%
[34]
  inhibition: 7.31%
[35]
  inhibition: 24.1%
[36]
  inhibition: -9.84%
[37]
  inhibition: -1.82%
[38]
  inhibition: -6.45%
[39]
  inhibition: 6.84%
[40]
  inhibition: 8.13%
[41]
  inhibition: -3.85%

## CCOc1cc(N2C3COCC2CN(C(=O)[C@H]2C[C@H](O)CN2c2ccc(Cl)cc2)C3)ccc1Cl [BAY-3153]
[1]
  Ki: 1480 nM
[2]
  inhibition: 2.17%
[3]
  inhibition: 4.08%
[5]
  inhibition: 5.82%
[6]
  inhibition: 1.58%
[8]
  inhibition: 10.5%
[42]
  Ki: 3010 nM
[9]
  inhibition: -2.08%
[10]
  inhibition: 17%
[12]
  inhibition: 7.09%
[14]
  inhibition: 83.6%
Rattus norvegicus
  inhibition: 54.2%
[43]
  inhibition: -9.03%
[17]
  inhibition: 18.6%
[18]
  inhibition: -1.97%
[19]
  IC50: 3 nM (active)
[20]
  inhibition: 33.4%
[21]
  inhibition: 53.6%
[44]
  inhibition: 3.92%
[22]
  inhibition: 15.5%
[23]
  inhibition: -8.16%
[24]
  inhibition: 85%
[25]
  Ki: 1830 nM
[26]
  inhibition: -6.17%
[27]
  inhibition: 8.64%
[45]
  inhibition: 7.26%
[28]
  inhibition: -3.29%
[46]
  inhibition: 10.3%
[29]
  inhibition: 17.3%
[30]
  inhibition: -4.29%
[31]
  inhibition: -4.63%
[32]
  inhibition: 11.2%
[33]
  inhibition: 1.24%
[34]
  inhibition: 6.74%
[47]
  inhibition: 40.3%
[35]
  inhibition: 8.61%
[36]
  inhibition: -5.38%
[37]
  inhibition: 1.7%
[38]
  inhibition: -2.86%
[39]
  inhibition: 2.54%
[40]
  inhibition: 27.7%
[48]
  Ki: 1810 nM
  pKi: 5.74
[41]
  inhibition: -5.67%
